In ChEMBL document CHEMBL1201862, “PubChem BioAssay data set” (2004):
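In this assay, cells in 96-well plates receive the compound at five concentrations for 48 hours. Endpoints are linearly interpolated between the surrounding concentrations. GI50 is the concentration that inhibits growth by half.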 The source made the active and inactive calls. Rule as the data show it: active = GI50 up to about 1.1 µM and inactive = higher.

Columns and labels:
Assay in all cases: NCI anticancer screen, dose series, 48 h
HCT-15 = test system: HCT-15
HT-29 = test system: HT-29
SF-295 = test system: SF-295
SK-MEL-5 = test system: SK-MEL-5
TK-10 = test system: TK-10
SK-MEL-2 = test system: SK-MEL-2
Malme-3M = test system: Malme-3M
OVCAR-5 = test system: OVCAR-5
786-0 = test system: 786-0
T47D = test system: T47D
OVCAR-4 = test system: OVCAR-4
NCI-H226 = test system: NCI-H226
CCRF-CEM = test system: CCRF-CEM
LOX IMVI = test system: LOX IMVI
UACC-62 = test system: UACC-62
UACC-257 = test system: UACC-257
EKVX = test system: EKVX
PC-3 = test system: PC-3
A549 = test system: A549
COLO 205 = test system: COLO 205

SMILES | GI50 (HCT-15) [µM] | GI50 (HT-29) | GI50 (SF-295) | GI50 (SK-MEL-5) | GI50 (TK-10) | GI50 (SK-MEL-2) | GI50 (Malme-3M) | GI50 (OVCAR-5) | GI50 (786-0) | GI50 (T47D) | GI50 (OVCAR-4) | GI50 (NCI-H226) | GI50 (CCRF-CEM) | GI50 (LOX IMVI) | GI50 (UACC-62) | GI50 (UACC-257) | GI50 (EKVX) | GI50 (PC-3) | GI50 (A549) | GI50 (COLO 205)
Cc1cc(-c2cc(C(C)(C)C)c(O)c(C(C)(C)C)c2)c(C)cc1-c1cc(C(C)(C)C)c(O)c(C(C)(C)C)c1 | > 100 | > 100 µM (inactive) | > 100 µM (inactive) | > 100 µM (inactive) | > 100 µM (inactive) | > 100 µM (inactive) | > 100 µM (inactive) | > 100 µM (inactive) | > 100 µM (inactive) | > 100 µM (inactive) | > 100 µM (inactive) | > 100 µM (inactive) | > 100 µM (inactive) | > 100 µM (inactive) | > 100 µM (inactive) | > 100 µM (inactive) | > 100 µM (inactive) | > 100 µM (inactive) | > 100 µM (inactive) | > 100 µM (inactive)
COc1cccc(C(=O)C(O)c2cccc(OC)c2OC)c1OC (stereo not given) | > 100 | > 100 µM (inactive) | > 100 µM (inactive) | > 100 µM (inactive) | > 100 µM (inactive) | > 100 µM (inactive) | > 100 µM (inactive) | > 100 µM (inactive) | > 100 µM (inactive) | > 100 µM (inactive) | > 100 µM (inactive) | > 100 µM (inactive) | > 100 µM (inactive) | > 100 µM (inactive) | > 100 µM (inactive) | > 100 µM (inactive) | > 100 µM (inactive) | > 100 µM (inactive) | > 100 µM (inactive) | > 100 µM (inactive)
Nc1nc(F)nc2c1ncn2C1OC(CO)C(O)C1O (stereo not given) | > 75 | > 100 µM (inactive) | > 100 µM (inactive) | 55.5 µM (inactive) | > 100 µM (inactive) | > 100 µM (inactive) | 32.5 µM (inactive) | > 100 µM (inactive) | 38.1 µM (inactive) | > 70 µM (inactive) | > 100 µM (inactive) | > 100 µM (inactive) | 0.344 µM (active) | 48.2 µM (inactive) | 58.6 µM (inactive) | > 90.8 µM (inactive) | > 100 µM (inactive) | 30.5 µM (inactive) | 43 µM (inactive) | 53.1 µM (inactive)
COc1cccc2c1C(=O)c1c(O)c3c(c(O)c1C2=O)C[C@@](O)(C(=O)CO)C[C@@H]3OC1CC(N)C(OC)C(C)O1 (stereo not given in full) | 1.98 | 0.0559 µM (active) | 0.0206 µM (active) | 0.0362 µM (active) | 0.838 µM (active) | 0.161 µM (active) | 0.0532 µM (active) | 0.189 µM (active) | 0.0327 µM (active) | 0.23 µM (active) | 0.458 µM (active) | 0.0553 µM (active) | < 0.0146 µM (active) | 0.0228 µM (active) | 0.0461 µM (active) | 0.282 µM (active) | 0.522 µM (active) | 0.153 µM (active) | 0.0269 µM (active) | 0.209 µM (active)
CO[C@H]1O[C@@H]2CO[C@@H](c3ccccc3)O[C@H]2C[C@]12CCC/C=C\CO2 | 13 | 17.7 µM (inactive) | 25.8 µM (inactive) | 17.5 µM (inactive) | 22.6 µM (inactive) | 15.9 µM (inactive) | 14.1 µM (inactive) | 60.1 µM (inactive) | 14.2 µM (inactive) | 18 µM (inactive) | 21.9 µM (inactive) | 18.3 µM (inactive) | 10.4 µM (inactive) | 12.6 µM (inactive) | 27.4 µM (inactive) | 22.2 µM (inactive) | 11.6 µM (inactive) | 16.2 µM (inactive) | 33.6 µM (inactive) | 13.9 µM (inactive)
CC(NC(=O)/C(C#N)=C/c1ccc2[nH]ccc2c1)c1ccccc1 (stereo not given) | 12.5 | 17.5 µM (inactive) | 17.1 µM (inactive) | 18.2 µM (inactive) | 17.9 µM (inactive) | 20.8 µM (inactive) | 28.2 µM (inactive) | 17.5 µM (inactive) | 16.7 µM (inactive) | 20.3 µM (inactive) | 20.2 µM (inactive) | 24.1 µM (inactive) | 17.5 µM (inactive) | 16.4 µM (inactive) | 15.3 µM (inactive) | 21.3 µM (inactive) | 22 µM (inactive) | 20.3 µM (inactive) | 24 µM (inactive) | 17.1 µM (inactive)
Cc1cc(=O)oc2cc(OC(=O)N(C)C)c(Cl)cc12 | > 100 | > 100 µM (inactive) | > 10 µM (inactive) | 76 µM (inactive) | > 100 µM (inactive) | 82.6 µM (inactive) | 84.3 µM (inactive) | > 100 µM (inactive) | 87.5 µM (inactive) | 85.9 µM (inactive) | > 100 µM (inactive) | 29.3 µM (inactive) | > 100 µM (inactive) | 85.5 µM (inactive) | 21.6 µM (inactive) | 80.5 µM (inactive) | > 100 µM (inactive) | > 100 µM (inactive) | > 100 µM (inactive) | 95.9 µM (inactive)
